Reference: patent publication US20220127297A1, “Novel Antibacterial 3"-Derivatives Of 4,6-Disubstituted 2,5-Dideoxystreptamine Aminoglycoside Antibiotics” (AGILeBiotics B.V., priority 2018, published 2022)
≈ marks a conversion by molar mass, not a printed value.

Key:
E. coli (AAC(3)III) = experiment: MIC 50, broth micro-dilution, E. coli expressing AAC(3)III; assay type: cell-based, Escherichia coli
E. coli (AAC(3)IV) = experiment: MIC 50, broth micro-dilution, E. coli expressing AAC(3)IV; assay type: cell-based, Escherichia coli
Outline: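 MIC50 marks the concentration at which growth reaches half its maximum, judged from OD600 of triplicate MH2 cultures after 18 h at 37° C. Strains are E. coli ATCC 25922 expressing the indicated resistance enzyme; compound spans 64 μM-31.3 nM.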

[1] = Escherichia coli, ATCC25922, ATCC25922 harboring plasmid encoding AAC(3)III
[2] = Escherichia coli, ATCC25922, ATCC25922 harboring plasmid encoding AAC(3)IV
[3] = ATCC25922 harboring plasmid encoding AAC(3)III
[4] = ATCC25922 harboring plasmid encoding AAC(3)IV

CNCCNC(=N)NC1[C@@H](O)C(OC2[C@@H](F)[C@H](O[C@H]3OC(CN)[C@@H](O)CC3N)C(N)C[C@H]2NC(=O)[C@@H](O)CCN)O[C@H](CO)[C@H]1O (some centres unmarked) [ABX5038, Tobra-AHB-F-Gua 2-(methylamino)ethyl]
MIC50 (E. coli (AAC(3)III); [1]): 0.25 µM (≈ 0.167 µg/mL) | MIC50 (E. coli (AAC(3)IV); [2]): 1 µM (≈ 0.67 µg/mL)

N=C(NC[C@@H]1CCCN1)NC1[C@@H](O)C(OC2[C@@H](F)[C@H](O[C@H]3OC(CN)[C@@H](O)CC3N)C(N)C[C@H]2NC(=O)[C@@H](O)CCN)O[C@H](CO)[C@H]1O (stereo partly drawn) [ABX5026, Tobra-AHB-F-Gua (S) pyrrolidine-2-yl-methyl]
MIC50 (E. coli (AAC(3)III); [1]): 0.25 µM (≈ 0.174 µg/mL) | MIC50 (E. coli (AAC(3)IV); [2]): 0.5 µM (≈ 0.348 µg/mL)

N=C(N)NC1[C@@H](O)C(OC2[C@@H](F)[C@H](O[C@H]3OC(CN)[C@@H](O)[C@H](O)C3N)C(N)C[C@H]2NC(=O)[C@@H](O)CCN)O[C@H](CO)[C@H]1O (some centres unmarked) [ABX4006, KanaB-AHB-F-Gua]
MIC50 (E. coli (AAC(3)III); [1]): 0.25 µM (≈ 0.157 µg/mL) | MIC50 (E. coli (AAC(3)IV); [2]): 2 µM (≈ 1.26 µg/mL)

NCCC(O)C(=O)NC1CC(N)C(OC2OC(CN)C(O)C(O)C2N)C(F)C1OC1OC(CO)C(O)C(N)C1O (centres unmarked) [ABX4007, KanaB-AHB-F]
MIC50 (E. coli (AAC(3)III); [3]): 1 µM (≈ 0.587 µg/mL) | MIC50 (E. coli (AAC(3)IV); [4]): 4 to 8 µM

N=C(N)NC1[C@@H](O)C(OC2[C@@H](F)[C@H](O[C@H]3OC(CNCCO)[C@@H](O)CC3N)C(N)C[C@H]2NC(=O)[C@@H](O)CCN)O[C@H](CO)[C@H]1O (some centres unmarked) [ABX5045, 6N-2-hydroxy-ethyl-Tobra-AHB-F-Gua]
MIC50 (E. coli (AAC(3)III); [1]): 0.5 to 1 µM (≈ 0.328 to 0.657 µg/mL) | MIC50 (E. coli (AAC(3)IV); [2]): 2 µM (≈ 1.31 µg/mL)

N=C(NCCO)NC1[C@@H](O)C(OC2[C@@H](F)[C@H](O[C@H]3OC(CN)[C@@H](O)CC3N)C(N)C[C@H]2NC(=O)[C@@H](O)CCN)O[C@H](CO)[C@H]1O (some centres unmarked) [ABX5029, Tobra-AHB-F-Gua 2-hydroxy-ethyl]
MIC50 (E. coli (AAC(3)III); [1]): 0.5 µM (≈ 0.328 µg/mL) | MIC50 (E. coli (AAC(3)IV); [2]): 2 µM (≈ 1.31 µg/mL)

N=C(NC[C@H]1CCNC1)NC1[C@@H](O)C(OC2[C@@H](F)[C@H](O[C@H]3OC(CN)[C@@H](O)CC3N)C(N)C[C@H]2NC(=O)[C@@H](O)CCN)O[C@H](CO)[C@H]1O (stereo partly drawn) [ABX5042, Tobra-AHB-F-Gua (S) pyrrolidine-3-ylmethyl]
MIC50 (E. coli (AAC(3)III); [1]): 0.125 µM (≈ 0.087 µg/mL) | MIC50 (E. coli (AAC(3)IV); [2]): 1 µM (≈ 0.696 µg/mL)

N=C(N)NC1C(O)[C@@H](CO)OC(OC2C(F)[C@H](O[C@H]3OC(CN)[C@@H](O)CC3N)C(N)C[C@H]2NC(=O)[C@@H](O)CCN)[C@@H]1O (some centres unmarked) [ABX5006, Tobra-AHB-F-Gua]
MIC50 (E. coli (AAC(3)III); [1]): 0.25 µM (≈ 0.153 µg/mL) | MIC50 (E. coli (AAC(3)IV); [2]): 0.5 to 1 µM (≈ 0.306 to 0.613 µg/mL)

NCC[C@H](O)C(=O)N[C@@H]1C[C@H](N)[C@@H](O[C@H]2O[C@H](CN)[C@@H](O)[C@H](O)[C@H]2O)[C@H](O)[C@H]1O[C@H]1O[C@H](CO)[C@@H](O)[C@H](N)[C@H]1O [Amikacin, amikacin, reference compound]
MIC50 (E. coli (AAC(3)III); [1]): 2 µM (≈ 1.17 µg/mL) | MIC50 (E. coli (AAC(3)IV); [2]): 8 µM (≈ 4.68 µg/mL)

N=C(NCc1ccncc1)NC1[C@@H](O)C(OC2[C@@H](F)[C@H](O[C@H]3OC(CN)[C@@H](O)CC3N)C(N)C[C@H]2NC(=O)[C@@H](O)CCN)O[C@H](CO)[C@H]1O (some centres unmarked) [ABX5048, Tobra-AHB-F-Gua pyridin-4-yl methyl]
MIC50 (E. coli (AAC(3)III); [1]): 0.5 to 1 µM (≈ 0.352 to 0.704 µg/mL) | MIC50 (E. coli (AAC(3)IV); [2]): 1 to 2 µM (≈ 0.704 to 1.41 µg/mL)

N=C(NCC1CCOC1)NC1[C@@H](O)C(OC2[C@@H](F)[C@H](O[C@H]3OC(CN)[C@@H](O)CC3N)C(N)C[C@H]2NC(=O)[C@@H](O)CCN)O[C@H](CO)[C@H]1O (some centres unmarked) [ABX5051, Tobra-AHB-F-Gua tetrahydrofuran-3-yl methyl]
MIC50 (E. coli (AAC(3)III); [1]): 0.5 to 1 µM (≈ 0.348 to 0.697 µg/mL) | MIC50 (E. coli (AAC(3)IV); [2]): 2 µM (≈ 1.39 µg/mL)

NCC[C@H](O)C(=O)N[C@@H]1C[C@H](N)[C@@H](O[C@H]2O[C@H](CN)[C@@H](O)[C@@H](O)[C@H]2O)[C@H](O)[C@H]1O[C@H]1O[C@H](CO)[C@@H](O)[C@H](N)[C@H]1O [ABX3002, 3′Epi-KanaA-AHB]
MIC50 (E. coli (AAC(3)III); [3]): 16 µM (≈ 9.37 µg/mL) | MIC50 (E. coli (AAC(3)IV); [4]): 32 µM (≈ 18.7 µg/mL)

N=C(NC[C@@H]1CNCCO1)NC1[C@@H](O)C(OC2[C@@H](F)[C@H](O[C@H]3OC(CN)[C@@H](O)CC3N)C(N)C[C@H]2NC(=O)[C@@H](O)CCN)O[C@H](CO)[C@H]1O (stereo partly drawn) [ABX5040, Tobra-AHB-F-Gua (S) morpholin-2-yl methyl]
MIC50 (E. coli (AAC(3)III); [1]): 0.25 µM (≈ 0.178 µg/mL) | MIC50 (E. coli (AAC(3)IV); [2]): 1 µM (≈ 0.712 µg/mL)
